According to patent publication US10875876B2, “Cyclized sulfamoylarylamide derivatives and the use thereof as medicaments for the treatment of hepatitis B” (priority 2015, dated 2020):
pEC50: −log10 of the molar value.

How the values were obtained:
HBV = assay: anti HBV activity, HepG2.117 cell line, intracellular HBV DNA by realtime PCR; format: cell-based; settings: Hepatitis B virus, HepG2.117, 72 h, HepG2.117 cell line (Tet-off), 3 days of treatment, intracellular HBV DNA quantified by realtime PCR; read-out: HBV-AVE-HepG2.117 EC50
Summary of the method: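 HepG2.117 cells, a Tet-off line that replicates HBV without doxycycline, were induced and then treated in duplicate with serially diluted compound. After 3 days, intracellular HBV DNA was quantified by real-time PCR with an HBV-specific primer set and probe.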

[1] = Cytotoxicity in HepG2 cells, Resazurin assay; settings: human, HepG2 cells, TOX-HepG2-4 d CC50 (μM), HepG2 cells incubated for 4 days, viability by Resazurin assay

| Structure (SMILES) | pEC50 (HBV) | melting point | CC50 at 4 days [1] |
| --- | --- | --- | --- |
| Cn1cc2c(c1C(=O)Nc1ccc(F)c(Br)c1F)CCC(C(C)(C)O)NS2(=O)=O (stereo not drawn) [Compound 179, N-(3-bromo-2,4-difluoro-phenyl)-3-(1-hydroxy-1-methyl-ethyl)-7-methyl-1,1-dioxo-2,3,4,5-tetrahydropyrrolo[3,4-f]thiazepine-6-carboxamide] | 7.68 | 236.8 °C | > 25 µM |
| C[C@H](O)[C@H]1CCc2c(cn(C)c2C(=O)Nc2ccc(F)c(C(F)F)c2)S(=O)(=O)N1 [Compound 103, (3R)—N-[3-(difluoromethyl)-4-fluoro-phenyl]-3-[(1S)-1-hydroxyethyl]-7-methyl-1,1-dioxo-2,3,4,5-tetrahydropyrrolo[3,4-f]thiazepine-6-carboxamide] | 8.22 | 274.7 °C | > 25 µM |
| C[C@H](O)[C@H]1C=Cc2c(cn(C)c2C(=O)Nc2ccc(F)c(Cl)c2)S(=O)(=O)N1 [Compound 194, (3R)—N-(3-chloro-4-fluoro-phenyl)-3-[(1S)-1-hydroxyethyl]-7-methyl-1,1-dioxo-2,3-dihydropyrrolo[3,4-f]thiazepine-6-carboxamide] | 8.22 | 211.3 °C | > 25 µM |
| CCC(O)[C@H]1COc2c(cn(C)c2C(=O)Nc2ccc(F)c(F)c2)S(=O)(=O)N1 (stereo partly drawn) | – | 214.6 °C | – |
| Cc1cccc(CC2(C)COc3c(cn(C)c3C(=O)Nc3ccc(F)c(F)c3)S(=O)(=O)N2)n1 (racemic) [Compound 172, N-(3,4-difluorophenyl)-3,7-dimethyl-3-[(6-methyl-2-pyridyl)methyl]-1,1-dioxo-2,4-dihydropyrrolo[3,4-b][1,4,5]oxathiazepine-6-carboxamide] | 7.13 | 206 °C | > 25 µM |
| Cn1cc2c(c1C(=O)Nc1ccc(F)c(F)c1)OCC(C)(Cc1ccnc(Cl)c1)NS2(=O)=O (stereo not drawn) [Compound 190, 3-[(2-chloro-4-pyridyl)methyl]-N-(3,4-difluorophenyl)-3,7-dimethyl-1,1-dioxo-2,4-dihydropyrrolo[3,4-b][1,4,5]oxathiazepine-6-carboxamide] | 8.22 | 225 °C | > 25 µM |
| Cc1sc2c(c1C(=O)Nc1ccc(F)c(F)c1)OCC(C)NS2(=O)=O (stereo not drawn) | – | 221.5 °C | – |
| Cn1cc2c(c1C(=O)Nc1ccc(F)c(F)c1)OC[C@](C)(c1ccccn1)NS2(=O)=O [Compound 127, (3S)—N-(3,4-difluorophenyl)-3,7-dimethyl-1,1-dioxo-3-(2-pyridyl)-2,4-dihydropyrrolo[3,4-b][1,4,5]oxathiazepine-6-carboxamide] | 7.89 | 270.8 °C | > 25 µM |
| CC(C)C(O)C1COc2c(cn(C)c2C(=O)Nc2ccc(F)c(C#N)c2)S(=O)(=O)N1 (racemic) | – | 213.7 °C | – |
| CC1C=Cc2c(csc2C(=O)Nc2ccc(F)c(F)c2)S(=O)(=O)N1 (stereo not drawn) | – | 220.8 °C | – |
| Cn1cc2c(c1C(=O)Nc1ccc(F)c(F)c1)OC[C@H](C(O)C1CC1)NS2(=O)=O (stereo partly drawn) | – | 244.8 °C | – |
| C[C@H]1CCc2c(cn(C)c2C(=O)Nc2ccc(F)c(C(F)F)c2F)S(=O)(=O)N1 [Compound 164, (3S)—N-[3-(difluoromethyl)-2,4-difluoro-phenyl]-3,7-dimethyl-1,1-dioxo-2,3,4,5-tetrahydropyrrolo[3,4-f]thiazepine-6-carboxamide] | 7.92 | 227.7 °C | > 25 µM |
| Cn1cc2c(c1C(=O)Nc1ccc(F)c(C(F)F)c1F)OC[C@H](C(C)(C)O)NS2(=O)=O [Compound 182, (3R)—N-[3-(difluoromethyl)-2,4-difluoro-phenyl]-3-(1-hydroxy-1-methyl-ethyl)-7-methyl-1,1-dioxo-3,4-dihydro-2H-pyrrolo[3,4-b][1,4,5]oxathiazepine-6-carboxamide] | 8.00 | 182.1 °C | > 25 µM |
| CCC(O)[C@@H]1COc2c(cn(C)c2C(=O)Nc2ccc(F)c(F)c2)S(=O)(=O)N1 (stereo in doubt) | – | 212.6 °C | – |
| Cc1cc(NC(=O)c2c3c(cn2C)S(=O)(=O)N[C@@H](C(O)C2CC2)CO3)ccc1F (stereo in doubt) | – | 234.7 °C | – |
| Cn1ccnc1CC1(C)COc2c(cn(C)c2C(=O)Nc2ccc(F)c(C(F)F)c2)S(=O)(=O)N1 (stereo not drawn) [Compound 187, N-[3-(difluoromethyl)-4-fluoro-phenyl]-3,7-dimethyl-3-[(1-methylimidazol-2-yl)methyl]-1,1-dioxo-2,4-dihydropyrrolo[3,4-b][1,4,5]oxathiazepine-6-carboxamide] | 8.52 | 282.8 °C | > 25 µM |
| Cn1cc2c(c1C(=O)Nc1ccc(F)c(F)c1)CC[C@@H](C(C)(C)O)NS2(=O)=O [Compound 113, (3S)—N-(3,4-difluorophenyl)-3-(1-hydroxy-1-methyl-ethyl)-7-methyl-1,1-dioxo-2,3,4,5-tetrahydropyrrolo[3,4-f]thiazepine-6-carboxamide] | 6.92 | 217.7 °C | > 25 µM |

| Structure (SMILES) | pEC50 (HBV) | melting point | CC50 at 4 days [1] |
| --- | --- | --- | --- |
| Cn1cc2c(c1C(=O)Nc1ccc(F)c(C(F)F)c1)OC[C@H](C(O)C1CC1)NS2(=O)=O (stereo partly drawn) | – | 240.7 °C | – |
| CCC(O)[C@@H]1COc2c(cn(C)c2C(=O)Nc2ccc(F)c(C#N)c2)S(=O)(=O)N1 (stereo in doubt) [Compound 163, N-(3-cyano-4-fluoro-phenyl)-3-(1-hydroxypropyl)-7-methyl-1,1-dioxo-3,4-dihydro-2H-pyrrolo[3,4-b][1,4,5]oxathiazepine-6-carboxamide] | < 6.90 | 247 °C | > 25 µM |
| Cn1cc2c(c1C(=O)Nc1ccc(F)c(C#N)c1)OC[C@](C)(c1ccccn1)NS2(=O)=O [Compound 128, (3S)—N-(3-cyano-4-fluoro-phenyl)-3,7-dimethyl-1,1-dioxo-3-(2-pyridyl)-2,4-dihydropyrrolo[3,4-b][1,4,5]oxathiazepine-6-carboxamide] | 7.62 | 235 °C | > 25 µM |
| Cn1cc2c(c1C(=O)Nc1ccnc(C(F)F)c1)OCC(C)(C)NS2(=O)=O [Compound 158, N-[2-(difluoromethyl)-4-pyridyl]-3,3,7-trimethyl-1,1-dioxo-2,4-dihydropyrrolo[3,4-b][1,4,5]oxathiazepine-6-carboxamide] | 7.51 | 229.9 °C | > 25 µM |
| C[C@H](O)[C@H]1CCc2c(cn(C)c2C(=O)Nc2ccc(F)c(Cl)c2)S(=O)(=O)N1 [Compound 193, (3R)—N-(3-chloro-4-fluoro-phenyl)-3-[(1S)-1-hydroxyethyl]-7-methyl-1,1-dioxo-2,3,4,5-tetrahydropyrrolo[3,4-f]thiazepine-6-carboxamide] | 8.22 | 290.8 °C | > 25 µM |
| Cn1cc2c(c1C(=O)Nc1ccc(F)c(F)c1)OC[C@@H](C(C)(C)F)NS2(=O)=O [Compound 121, (3S)—N-(3,4-difluorophenyl)-3-(1-fluoro-1-methyl-ethyl)-7-methyl-1,1-dioxo-3,4-dihydro-2H-pyrrolo[3,4-b][1,4,5]oxathiazepine-6-carboxamide] | 7.54 | 239.8 °C | > 25 µM |
| Cn1cc2c(c1C(=O)Nc1ccc(F)c(Cl)c1)OC[C@H](C(C)(C)O)NS2(=O)=O [Compound 180, (3R)—N-(3-chloro-4-fluoro-phenyl)-3-(1-hydroxy-1-methyl-ethyl)-7-methyl-1,1-dioxo-3,4-dihydro-2H-pyrrolo[3,4-b][1,4,5]oxathiazepine-6-carboxamide] | 8.30 | 234.1 °C | > 25 µM |
| C[C@H](O)[C@H]1CCc2c(cn(C)c2C(=O)Nc2ccc(F)c(C(F)F)c2F)S(=O)(=O)N1 [Compound 188, (3R)—N-[3-(difluoromethyl)-2,4-difluoro-phenyl]-3-[(1S)-1-hydroxyethyl]-7-methyl-1,1-dioxo-2,3,4,5-tetrahydropyrrolo[3,4-f]thiazepine-6-carboxamide] | 7.96 | 277.1 °C | > 25 µM |
| C[C@H](O)[C@H]1C=Cc2c(cn(C)c2C(=O)Nc2cc(F)c(F)c(F)c2)S(=O)(=O)N1 [Compound 98, (3R)-3-[(1S)-1-hydroxyethyl]-7-methyl-1,1-dioxo-N-(3,4,5-trifluorophenyl)-2,3-dihydropyrrolo[3,4-f]thiazepine-6-carboxamide] | 8.10 | 244 °C | > 25 µM |
| Cn1cc2c(c1C(=O)Nc1ccc(F)c(F)c1)C=CC(C(F)(F)F)NS2(=O)=O (stereo not drawn) [Compound 8, N-(3,4-difluorophenyl)-7-methyl-1,1-dioxo-3-(trifluoromethyl)-2,3-dihydropyrrolo[3,4-f]thiazepine-6-carboxamide] | 7.33 | 245.6 °C | > 25 µM |
| CC1CCc2c(cn(C)c2C(=O)Nc2ccc(F)c(F)c2)S(=O)(=O)N1 (stereo not drawn) | – | 229.8 °C | – |
| CCC(O)[C@@H]1COc2c(cn(C)c2C(=O)Nc2ccc(F)c(C(F)F)c2)S(=O)(=O)N1 (stereo in doubt) | – | 224.6 °C | – |
| CC(NCC(F)(F)F)C1CCc2c(cn(C)c2C(=O)Nc2cc(F)c(F)c(F)c2)S(=O)(=O)N1 (stereo not drawn) | – | 216.2 °C | – |
| Cn1cc2c(c1C(=O)Nc1ccc(F)c(C#N)c1)OC[C@H](C(O)C1CC1)NS2(=O)=O (stereo partly drawn) | – | 233.9 °C | – |
| CC(C)C(O)C1COc2c(cn(C)c2C(=O)Nc2ccc(F)c(F)c2)S(=O)(=O)N1 (racemic) | – | 247.3 °C | – |
| CCC(O)[C@H]1COc2c(cn(C)c2C(=O)Nc2ccc(F)c(C(F)F)c2)S(=O)(=O)N1 (stereo partly drawn) | – | 224.5 °C | – |
| Cn1cc2c(c1C(=O)Nc1ccc(F)c(Cl)c1)OC[C@H](C(O)C1CC1)NS2(=O)=O (stereo in doubt) | – | 215.8 °C | – |
